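Cells were grown in 96-well plates and exposed to each compound for 48 hours at five concentrations; endpoints were interpolated linearly between bracketing concentrations, or set to the highest concentration if not reached. GI50 marks 50% less growth.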 Active and inactive are the calls of the source. Cut-off read from the data, not from the text of the source: active = GI50 up to about 1.1 µM and inactive = higher.
Key:
Assay in all cases: NCI anticancer screen, dose series, 48 h
DLD-1 = system: DLD-1
DMS-114 = system: DMS-114
DMS-273 = system: DMS-273
KM-20L2 = system: KM-20L2
LXFL 529 = system: LXFL 529
M19-MEL = system: M19-MEL
RXF 631 = system: RXF 631
XF498 = system: XF498
HOP-18 = system: HOP-18

Structure (SMILES)	GI50 (DLD-1)	GI50 (DMS-114)	GI50 (DMS-273)	GI50 (KM-20L2)	GI50 (LXFL 529)	GI50 (M19-MEL)	GI50 (RXF 631)	GI50 (XF498)	GI50 (HOP-18)
CC(C)(CN1CCCCC1)C(=O)CC(SCCN)c1ccc(Cl)cc1 (stereo not given)	1.59 µM (inactive)	1.58 µM (inactive)	1.98 µM (inactive)	1.67 µM (inactive)	1.75 µM (inactive)	2.28 µM (inactive)	3.94 µM (inactive)	1.71 µM (inactive)	–
O=c1ncccn1C1OC(CO)C(O)C1O (stereo not given)	> 100 µM (inactive)	> 100 µM (inactive)	> 100 µM (inactive)	> 100 µM (inactive)	> 100 µM (inactive)	> 100 µM (inactive)	–	–	> 100 µM (inactive)
CC(C)OP(=O)(OC(C)C)/C(=N/Nc1ccccc1[N+](=O)[O-])NCCN/C(=N\Nc1ccccc1[N+](=O)[O-])P(=O)(OC(C)C)OC(C)C	34 µM (inactive)	31.7 µM (inactive)	35.2 µM (inactive)	24.9 µM (inactive)	19.5 µM (inactive)	34.9 µM (inactive)	–	–	–
[O-][n+]1c2c([n+]([O-])c3ccccc31)CCCCCCCCCC2	> 100 µM (inactive)	–	> 100 µM (inactive)	17.5 µM (inactive)	68.1 µM (inactive)	> 100 µM (inactive)	–	> 100 µM (inactive)	–
NC1=NS(=O)(=O)Nc2nc(-c3ccc(Cl)cc3)[nH]c21	> 100 µM (inactive)	> 100 µM (inactive)	> 100 µM (inactive)	> 100 µM (inactive)	> 100 µM (inactive)	> 100 µM (inactive)	–	–	> 100 µM (inactive)
N=C(N)NS(=O)(=O)c1ccc(NC(=O)c2ccc(Cl)c3c(Nc4ccc(S(=O)(=O)N=C(N)N)cc4)c4ccccc4nc23)cc1	49.2 µM (inactive)	> 100 µM (inactive)	> 100 µM (inactive)	> 100 µM (inactive)	52.8 µM (inactive)	49.8 µM (inactive)	> 100 µM (inactive)	–	68.1 µM (inactive)
Cc1cn(C2OC(C)(CO)C(O)C2O)c(=O)[nH]c1=O (stereo not given)	> 100 µM (inactive)	> 100 µM (inactive)	> 100 µM (inactive)	–	> 100 µM (inactive)	> 100 µM (inactive)	–	–	> 100 µM (inactive)
C[C@H]1CC(=O)C2=CCCC3(SCCCS3)[C@@H]2[C@H]1CO	> 100 µM (inactive)	> 100 µM (inactive)	> 100 µM (inactive)	–	> 100 µM (inactive)	78.5 µM (inactive)	> 100 µM (inactive)	> 100 µM (inactive)	> 100 µM (inactive)
C=C(NC(=O)C(=C)NC(=O)c1csc(C2=NC3c4csc(n4)C4NC(=O)c5csc(n5)C(C(C)(O)C(C)O)NC(=O)C5CSC(=N5)/C(=C/C)NC(=O)C(C(C)O)NC(=O)c5csc(n5)C3(CC2)NC(=O)C(C)NC(=O)C(=C)NC(=O)C(C)NC(=O)C(C(C)CC)NC2C=Cc3c(C(C)O)cc(nc3C2O)C(=O)OC4C)n1)C(N)=O (stereo not given)	1.76 µM (inactive)	2.72 µM (inactive)	1.37 µM (inactive)	2.84 µM (inactive)	0.449 µM (active)	1.37 µM (inactive)	3.61 µM (inactive)	0.355 µM (active)	2.72 µM (inactive)
N#C/C(=C\c1ccc2ccccc2c1)C(=O)c1ccccc1	> 100 µM (inactive)	> 100 µM (inactive)	> 100 µM (inactive)	> 100 µM (inactive)	> 86.7 µM (inactive)	> 87.9 µM (inactive)	–	> 100 µM (inactive)	> 100 µM (inactive)
c1ccc(CNn2nnc3ccccc32)cc1	> 100 µM (inactive)	> 100 µM (inactive)	> 100 µM (inactive)	> 100 µM (inactive)	> 100 µM (inactive)	> 100 µM (inactive)	–	> 100 µM (inactive)	–
COc1ccc([C@@H]2CC(=O)NCCCNCCCCNCCCN2)cc1	> 100 µM (inactive)	> 100 µM (inactive)	> 100 µM (inactive)	> 100 µM (inactive)	> 100 µM (inactive)	> 100 µM (inactive)	–	> 100 µM (inactive)	59.6 µM (inactive)
O=C1C2c3[nH]c4ccccc4c3C3CCCCC3C2C(=O)N1c1ccccc1 (stereo not given)	> 100 µM (inactive)	> 100 µM (inactive)	85.3 µM (inactive)	–	> 100 µM (inactive)	> 100 µM (inactive)	> 100 µM (inactive)	–	37.2 µM (inactive)
CC(=O)O[C@]12CCCC1C1(O)C(O)CCCC12 (stereo not given in full)	–	> 100 µM (inactive)	> 100 µM (inactive)	> 100 µM (inactive)	> 100 µM (inactive)	> 100 µM (inactive)	–	> 100 µM (inactive)	> 100 µM (inactive)
O=P1(Oc2ccccc2)C(c2ccccc2)C(c2ccccc2)=NN1c1ccccc1 (stereo not given)	18.3 µM (inactive)	19.5 µM (inactive)	30.3 µM (inactive)	20.7 µM (inactive)	19.8 µM (inactive)	23.1 µM (inactive)	35.4 µM (inactive)	43.2 µM (inactive)	44.1 µM (inactive)
O=Cc1ccccc1COC(=O)c1cc(C(=O)OCc2ccccc2C=O)c(C(=O)OCc2ccccc2C=O)cc1C(=O)OCc1ccccc1C=O	> 100 µM (inactive)	49.4 µM (inactive)	30.3 µM (inactive)	> 100 µM (inactive)	46.3 µM (inactive)	> 100 µM (inactive)	–	> 100 µM (inactive)	> 100 µM (inactive)
Cc1c(C)c([N+](=O)[O-])c2c(c1N)C(=O)c1ccccc1C2=O	> 100 µM (inactive)	> 100 µM (inactive)	> 100 µM (inactive)	> 100 µM (inactive)	> 100 µM (inactive)	90.8 µM (inactive)	–	> 100 µM (inactive)	33 µM (inactive)
C[C@@](O)(/C=C/[C@H]1CC=CC(=O)O1)[C@@H](C[C@@H](O)\C=C/C=C\C=C\CO)OP(=O)(O)O [FOSTRIECIN SODIUM]	13.2 µM (inactive)	13 µM (inactive)	6.19 µM (inactive)	1.03 µM (active)	–	4.17 µM (inactive)	–	52.5 µM (inactive)	–
O=c1c2c(c1=O)-c1ccccc1CN2	> 100 µM (inactive)	> 100 µM (inactive)	> 100 µM (inactive)	> 100 µM (inactive)	> 100 µM (inactive)	> 100 µM (inactive)	–	20.6 µM (inactive)	–
